Assay results taken from ChEMBL document CHEMBL6109045, “Photosensitizer associated with efflux pump inhibitors as a strategy for photodynamic therapy against bacterial resistance” (2025).

Tests used:
Staphylococcus aureus [1] = experiment: Antibacterial activity against methicillin-resistant Staphylococcus aureus ATCC 33591 assessed as reduction in bacterial growth at 20 uM in presence of 6 J/cm2 light irradiation by photosensitization assay; format: functional
Escherichia coli [2] = experiment: Antibacterial activity against Escherichia coli K12 assessed as reduction in bacterial growth at 20 uM in presence of 6 J/cm2 light irradiation by photosensitization assay; format: functional
Acinetobacter baumannii [3] = experiment: Antibacterial activity against Acinetobacter baumannii ATCC 17978 assessed as reduction in bacterial growth at 20 uM in presence of 6 J/cm2 light irradiation by photosensitization assay; format: functional
Escherichia coli [4] = experiment: Antibacterial activity against Escherichia coli ATCC 25922 assessed as reduction in bacterial growth at 20 uM in presence of 100 J/cm2 light irradiation by photosensitization assay; format: functional
Staphylococcus aureus [5] = experiment: Antibacterial activity against Staphylococcus aureus ATCC 25923 assessed as reduction in bacterial growth at 20 uM in presence of 100 J/cm2 light irradiation by photosensitization assay; format: functional
Staphylococcus aureus [6] = experiment: Antibacterial activity against Staphylococcus aureus […] assessed as reduction in bacterial growth at 64 ug/ml in presence of 18 J/cm2 light irradiation by photosensitization assay; format: functional; conditions: dose 64 µg/ml
Pseudomonas aeruginosa [7] = experiment: Antibacterial activity against Pseudomonas aeruginosa ATCC 27853 assessed as reduction in bacterial growth at 10 to 20 ug/ml in presence of 18 J/cm2 light irradiation by photosensitization assay; format: functional; conditions: dose 10-20 µg/ml
Pseudomonas aeruginosa [8] = experiment: Antibacterial activity against Pseudomonas aeruginosa ATCC 27853 assessed as reduction in bacterial growth at 400 uM in presence of 72 J/cm2 light irradiation by photosensitization assay; format: functional
Staphylococcus aureus [9] = experiment: Antibacterial activity against Staphylococcus aureus MCC 2408 assessed as reduction in bacterial growth at 400 uM in presence of 72 J/cm2 light irradiation by photosensitization assay; format: functional
Pseudomonas aeruginosa [10] = experiment: Antibacterial activity against Pseudomonas aeruginosa ATCC 27853 assessed as reduction in bacterial growth at 16 uM in presence of 54 J/cm2 light irradiation by photosensitization assay; format: functional
Staphylococcus aureus [11] = experiment: Antibacterial activity against Staphylococcus aureus MCC 2408 assessed as reduction in bacterial growth at 0.62 ug/ml in presence of 18 J/cm2 light irradiation by photosensitization assay; format: functional; conditions: dose 0.62 µg/ml
Staphylococcus aureus [12] = experiment: Antibacterial activity against Staphylococcus aureus MCC 2408 assessed as reduction in bacterial growth at 50 ug/ml in presence of 58.49 J/cm2 light irradiation by photosensitization assay; format: functional; conditions: dose 50 µg/ml
Enterococcus faecalis [13] = experiment: Antibacterial activity against Enterococcus faecalis assessed as reduction in bacterial growth at 16 uM in presence of 54 J/cm2 light irradiation by photosensitization assay; format: functional
Staphylococcus aureus [14] = experiment: Antibacterial activity against Staphylococcus aureus MCC 2408 assessed as reduction in bacterial growth at 16 uM in presence of 54 J/cm2 light irradiation by photosensitization assay; format: functional
Pseudomonas aeruginosa [15] = experiment: Antibacterial activity against Pseudomonas aeruginosa ATCC 27853 assessed as reduction in bacterial growth at 7000 ug/ml in presence of 18 J/cm2 light irradiation by photosensitization assay; format: functional; conditions: dose 7000 µg/ml
Staphylococcus aureus [16] = experiment: Antibacterial activity against Staphylococcus aureus ATCC 29213 assessed as reduction in bacterial growth at 300 ug/ml in presence of 12 J/cm2 light irradiation by photosensitization assay; format: functional; conditions: dose 300 µg/ml
Pseudomonas aeruginosa [17] = experiment: Antibacterial activity against Pseudomonas aeruginosa ATCC 27853 assessed as reduction in bacterial growth at 60 ug/ml in presence of 100 J/cm2 light irradiation by photosensitization assay; format: functional; conditions: dose 60 µg/ml
Staphylococcus aureus [18] = experiment: Antibacterial activity against Staphylococcus aureus assessed as reduction in bacterial growth at 200 ug/ml in presence of 180 J/cm2 light irradiation by photosensitization assay; format: functional; conditions: dose 200 µg/ml
Escherichia coli [19] = experiment: Antibacterial activity against Escherichia coli assessed as reduction in bacterial growth at 100 uM in presence of 100 J/cm2 light irradiation by photosensitization assay; format: functional
Staphylococcus aureus [20] = experiment: Antibacterial activity against methicillin-resistant Staphylococcus aureus ATCC 33591 assessed as reduction in bacterial growth at 1 uM in presence of 8 J/cm2 light irradiation by photosensitization assay; format: functional
Staphylococcus aureus [21] = experiment: Antibacterial activity against Staphylococcus aureus ATCC 29213 assessed as reduction in bacterial growth at 8 uM in presence of 30 J/cm2 light irradiation by photosensitization assay; format: functional
Escherichia coli [22] = experiment: Antibacterial activity against Escherichia coli assessed as reduction in bacterial growth at 8 uM in presence of 30 J/cm2 light irradiation by photosensitization assay; format: functional
Staphylococcus aureus [23] = experiment: Antibacterial activity against Staphylococcus aureus ATCC 29213 assessed as reduction in bacterial growth at 0.25 uM in presence of 8 J/cm2 light irradiation by photosensitization assay; format: functional
Staphylococcus aureus [24] = experiment: Antibacterial activity against methicillin-resistant Staphylococcus aureus ATCC 33591 assessed as reduction in bacterial growth at 8 uM in presence of 30 J/cm2 light irradiation by photosensitization assay; format: functional
Staphylococcus aureus [25] = experiment: Antibacterial activity against Staphylococcus aureus ATCC 29213 assessed as reduction in bacterial growth at 5 uM in presence of 18 J/cm2 light irradiation by photosensitization assay; format: functional
Enterococcus faecalis [26] = experiment: Antibacterial activity against Staphylococcus aureus ATCC 29212 assessed as reduction in bacterial growth at 14 uM in presence of 25 J/cm2 light irradiation by photosensitization assay; format: functional
Acinetobacter baumannii [27] = experiment: Antibacterial activity against Acinetobacter baumannii ATCC 17978 assessed as reduction in bacterial growth at 10 uM in presence of 22.5 J/cm2 light irradiation by photosensitization assay; format: functional
Pseudomonas aeruginosa [28] = experiment: Antibacterial activity against Pseudomonas aeruginosa ATCC 27853 assessed as reduction in bacterial growth at 10 uM in presence of 100 J/cm2 light irradiation by photosensitization assay; format: functional
Acinetobacter baumannii [29] = experiment: Antibacterial activity against Acinetobacter baumannii ATCC 17978 assessed as reduction in bacterial growth at 2 uM in presence of 22.5 J/cm2 light irradiation by photosensitization assay; format: functional
Staphylococcus aureus [30] = experiment: Antibacterial activity against Staphylococcus aureus ATCC 25923 assessed as reduction in bacterial growth at 50 ug/ml in presence of 58.49 J/cm2 light irradiation by photosensitization assay; format: functional; conditions: dose 50 µg/ml
Pseudomonas aeruginosa [31] = experiment: Antibacterial activity against Pseudomonas aeruginosa ATCC 27853 assessed as reduction in bacterial growth at 50 ug/ml in presence of 58.4 J/cm2 light irradiation by photosensitization assay; format: functional; conditions: dose 50 µg/ml
Klebsiella aerogenes = experiment: Antibacterial activity against Klebsiella aerogenes assessed as reduction in bacterial growth at 16 uM in presence of 54 J/cm2 light irradiation by photosensitization assay; format: functional
Bacillus subtilis = experiment: Antibacterial activity against Bacillus subtilis assessed as reduction in bacterial growth at 2 uM in presence of 22.5 J/cm2 light irradiation by photosensitization assay; format: functional
Staphylococcus aureus [32] = experiment: Antibacterial activity against Staphylococcus aureus ATCC 25923 assessed as reduction in bacterial growth in presence of 6 J/cm2 light irradiation by photosensitization assay; format: functional
Staphylococcus aureus [33] = experiment: Antibacterial activity against Staphylococcus aureus ATCC 25923 assessed as reduction in bacterial growth at 5 ug/ml in presence of 97.65 J/cm2 light irradiation by photosensitization assay; format: functional; conditions: dose 5 µg/ml
Pseudomonas aeruginosa [34] = experiment: Antibacterial activity against Pseudomonas aeruginosa ATCC 27853 assessed as reduction in bacterial growth at 50 ug/ml in presence of 97.65 J/cm2 light irradiation by photosensitization assay; format: functional; conditions: dose 50 µg/ml
Acinetobacter baumannii [35] = experiment: Antibacterial activity against Acinetobacter baumannii ATCC BAA 747 assessed as reduction in bacterial growth at 2 uM in presence of 22.5 J/cm2 light irradiation by photosensitization assay; format: functional
Escherichia coli [36] = experiment: Antibacterial activity against Escherichia coli ATCC 25922 assessed as reduction in bacterial growth in presence of 6 J/cm2 light irradiation by photosensitization assay; format: functional
Staphylococcus aureus [37] = experiment: Antibacterial activity against Staphylococcus aureus assessed as reduction in bacterial growth at 20 uM in presence of 80 J/cm2 light irradiation by photosensitization assay; format: functional
Escherichia coli [38] = experiment: Antibacterial activity against Escherichia coli assessed as reduction in bacterial growth at 20 uM in presence of 80 J/cm2 light irradiation by photosensitization assay; format: functional, organism-based

## CN(CCCOc1ccccc1NC(=O)Nc1ccc2ccccc2c1)CCN(C)c1ccc2nc3ccc(N(C)C)cc3[s+]c2c1.[Cl-]
Staphylococcus aureus [1]
  log(activity): 4
Escherichia coli [2]
  log(activity): 3
Acinetobacter baumannii [3]
  log(activity): 3

## C1=Cc2nc1c(-c1ccccc1)c1ccc([nH]1)c(-c1ccccc1)c1nc(c(-c3ccccc3)c3ccc([nH]3)c2-c2ccccc2)C=C1
Escherichia coli [4]
  log(activity): 3
Staphylococcus aureus [5]
  log(activity): 5

## CN(CCN(C)c1ccc2nc3ccc(N(C)C)cc3[s+]c2c1)C(=O)c1ccc(-c2cc3cc([N+](=O)[O-])ccc3[nH]2)cc1.Cl
Staphylococcus aureus [1]
  log(activity): 6
Escherichia coli [2]
  log(activity): 6
Acinetobacter baumannii [3]
  log(activity): 4

## CN(C)c1ccc2nc3ccc(N(C)C)cc3[s+]c2c1.[Cl-] [METHYLENE BLUE ANHYDROUS]
Staphylococcus aureus [6]
  log(activity): 6
Pseudomonas aeruginosa [7]
  log(activity): 6
Pseudomonas aeruginosa [8]
  log(activity): 4.1
Staphylococcus aureus [9]
  log(activity): 7.3
Pseudomonas aeruginosa [10]
  log(activity): 1.1
Staphylococcus aureus [11]
  log(activity): 6
Staphylococcus aureus [12]
  log(activity): 2.38
Enterococcus faecalis [13]
  log(activity): 0.7
Staphylococcus aureus [14]
  log(activity): 5
Pseudomonas aeruginosa [15]
  log(activity): 6

## Cc1cc(N(C)C)cc2[s+]c3cc(N(C)C)cc(C)c3nc12.[Cl-]
Staphylococcus aureus [16]
  log(activity): 99%

## O=[N+]([O-])c1ccc(-c2c3nc(c(-c4ccc([N+](=O)[O-])cc4)c4ccc([nH]4)c(-c4ccc([N+](=O)[O-])cc4)c4nc(c(-c5ccc([N+](=O)[O-])cc5)c5ccc2[nH]5)C=C4)C=C3)cc1
Pseudomonas aeruginosa [17]
  log(activity): 2

## CC1=C(CCC(=O)O)c2cc3[nH]c(cc4nc(cc5[nH]c(cc1n2)c(C)c5C(C)O)C(C)=C4C(C)O)c(C)c3CCC(=O)O (stereo not drawn) [HEMATOPORPHYRIN]
Staphylococcus aureus [18]
  log(activity): >6
Escherichia coli [19]
  log(activity): <6

## Cc1cc(O)c2c(=O)c3c(O)cc(O)c4c5c(O)cc(O)c6c(=O)c7c(O)cc(C)c8c1c2c(c34)c(c78)c65 [HYPERICIN]
Staphylococcus aureus [20]
  log(activity): >0.6
Staphylococcus aureus [21]
  log(activity): >6
Escherichia coli [22]
  log(activity): 0.06
Staphylococcus aureus [23]
  log(activity): >6
Staphylococcus aureus [24]
  log(activity): >0.6

## COc1cc(/C=C/C(=O)CC(=O)/C=C/c2ccc(O)c(OC)c2)ccc1O [CURCUMIN]
Staphylococcus aureus [25]
  log(activity): 7
Enterococcus faecalis [26]
  log(activity): 10

## CCNc1cc2[s+]c3cc(NCC)c(C)cc3nc2cc1C.[Cl-]
Acinetobacter baumannii [27]
  log(activity): 3
Pseudomonas aeruginosa [28]
  log(activity): 3
Acinetobacter baumannii [29]
  log(activity): 6

## CN(CCN(C)c1ccc2nc3ccc(N(C)C)cc3[s+]c2c1)Cc1ccc(-c2cc3cc([N+](=O)[O-])ccc3[nH]2)cc1.Cl
Staphylococcus aureus [1]
  log(activity): 3
Escherichia coli [2]
  log(activity): 4
Acinetobacter baumannii [3]
  log(activity): 5

## Cc1cc2nc3ccc(N(C)C)cc3[s+]c2cc1N.[Cl-] [TOLONIUM CHLORIDE]
Staphylococcus aureus [30]
  log(activity): 2.21
Pseudomonas aeruginosa [31]
  log(activity): 2.2
Klebsiella aerogenes
  log(activity): >8
Bacillus subtilis
  log(activity): >6
Staphylococcus aureus [32]
  log(activity): 5.83
Staphylococcus aureus [33]
  log(activity): 2.66
Pseudomonas aeruginosa [34]
  log(activity): 2.36
Acinetobacter baumannii [35]
  log(activity): 3
Escherichia coli [36]
  log(activity): 0.08

## C[n+]1ccc(-c2c3nc(c(-c4cc[n+](C)cc4)c4ccc([nH]4)c(-c4cc[n+](C)cc4)c4ccc([nH]4)c(-c4cc[n+](C)cc4)c4nc2C=C4)C=C3)cc1 [TMPYP4]
Escherichia coli [4]
  log(activity): 7
Staphylococcus aureus [5]
  log(activity): 7
Staphylococcus aureus [37]
  log(activity): 7

## C[n+]1cccc(-c2c3nc(c(-c4ccc[n+](C)c4)c4ccc([nH]4)c(-c4ccc[n+](C)c4)c4nc(c(-c5ccc[n+](C)c5)c5ccc2[nH]5)C=C4)C=C3)c1
Escherichia coli [19]
  log(activity): 6
Escherichia coli [38]
  log(activity): 7

## O=S(=O)(O)c1ccc(-c2c3nc(c(-c4ccc(S(=O)(=O)O)cc4)c4ccc([nH]4)c(-c4ccc(S(=O)(=O)O)cc4)c4nc(c(-c5ccc(S(=O)(=O)O)cc5)c5ccc2[nH]5)C=C4)C=C3)cc1
Escherichia coli [4]
  log(activity): 7
Staphylococcus aureus [5]
  log(activity): 7

## CN(C)c1ccc2nc3ccc(N4CCN(CCCOc5ccccc5NC(=O)Nc5ccc6ccccc6c5)CC4)cc3[s+]c2c1.[Cl-]
Staphylococcus aureus [1]
  log(activity): 3
Escherichia coli [2]
  log(activity): 3
